The record followed here is US9616064B2, “Rho kinase inhibitors and methods of use” (H. LEE MOFFITT CANCER CENTER AND RESEARCH INSTITUTE, INC., priority 2011, dated 2017).

Assay [1] deals with ROCK1 (Homo sapiens (Human), UniProt Q13464). Description: Z-lyte FRET assay to measure kinase inhibition, ROCK1. The following applies: for inhibition at 50 µM: read-out: ROCK1 % inhibition @ 50 μM, 50 μM compound; for inhibition at 100 µM: read-out: ROCK1 % inhibition @ 100 μM, 100 μM compound. The format is biochemical.
Assay [2] addresses ROCK2 (Homo sapiens (Human), UniProt O75116). The assay can be described thus: Z-lyte FRET assay to measure kinase inhibition, ROCK2. The format is biochemical.

Where two headings read alike, the source gives them in different places.

Chain of ROCK1 (Q13464 whole entry): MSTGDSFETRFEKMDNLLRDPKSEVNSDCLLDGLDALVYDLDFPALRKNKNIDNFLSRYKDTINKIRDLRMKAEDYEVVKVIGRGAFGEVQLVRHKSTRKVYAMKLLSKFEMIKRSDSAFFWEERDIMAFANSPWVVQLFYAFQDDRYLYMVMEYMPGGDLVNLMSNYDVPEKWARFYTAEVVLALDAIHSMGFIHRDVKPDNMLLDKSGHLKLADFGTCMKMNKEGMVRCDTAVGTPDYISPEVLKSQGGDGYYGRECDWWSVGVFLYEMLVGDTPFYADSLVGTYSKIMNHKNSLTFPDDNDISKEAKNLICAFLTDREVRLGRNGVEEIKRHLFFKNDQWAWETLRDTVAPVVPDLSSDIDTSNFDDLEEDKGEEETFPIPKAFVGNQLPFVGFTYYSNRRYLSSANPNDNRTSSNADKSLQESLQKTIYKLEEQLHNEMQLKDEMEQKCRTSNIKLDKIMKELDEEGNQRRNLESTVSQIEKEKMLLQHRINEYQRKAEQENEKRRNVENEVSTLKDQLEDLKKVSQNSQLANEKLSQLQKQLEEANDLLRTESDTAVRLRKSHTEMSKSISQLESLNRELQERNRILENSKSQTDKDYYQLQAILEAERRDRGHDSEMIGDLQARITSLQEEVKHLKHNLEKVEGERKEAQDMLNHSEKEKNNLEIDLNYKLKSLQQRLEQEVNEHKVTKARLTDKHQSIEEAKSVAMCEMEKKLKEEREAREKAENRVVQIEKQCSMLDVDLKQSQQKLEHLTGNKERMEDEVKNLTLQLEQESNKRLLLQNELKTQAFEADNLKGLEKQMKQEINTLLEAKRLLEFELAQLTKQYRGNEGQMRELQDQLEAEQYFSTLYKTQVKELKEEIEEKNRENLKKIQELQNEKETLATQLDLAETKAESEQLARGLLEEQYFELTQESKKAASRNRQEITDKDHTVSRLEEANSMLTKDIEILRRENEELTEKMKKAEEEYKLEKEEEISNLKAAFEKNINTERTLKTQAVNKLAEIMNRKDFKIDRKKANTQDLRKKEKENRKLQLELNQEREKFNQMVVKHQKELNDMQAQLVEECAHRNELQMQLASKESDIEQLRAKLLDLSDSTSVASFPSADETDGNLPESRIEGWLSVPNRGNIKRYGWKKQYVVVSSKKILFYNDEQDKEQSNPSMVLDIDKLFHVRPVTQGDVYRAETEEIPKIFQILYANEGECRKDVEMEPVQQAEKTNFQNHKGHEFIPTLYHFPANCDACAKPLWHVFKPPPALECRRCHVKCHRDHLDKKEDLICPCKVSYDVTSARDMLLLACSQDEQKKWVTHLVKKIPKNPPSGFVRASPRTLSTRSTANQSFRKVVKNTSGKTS
Chain of ROCK2 (O75116 whole entry, species assumed): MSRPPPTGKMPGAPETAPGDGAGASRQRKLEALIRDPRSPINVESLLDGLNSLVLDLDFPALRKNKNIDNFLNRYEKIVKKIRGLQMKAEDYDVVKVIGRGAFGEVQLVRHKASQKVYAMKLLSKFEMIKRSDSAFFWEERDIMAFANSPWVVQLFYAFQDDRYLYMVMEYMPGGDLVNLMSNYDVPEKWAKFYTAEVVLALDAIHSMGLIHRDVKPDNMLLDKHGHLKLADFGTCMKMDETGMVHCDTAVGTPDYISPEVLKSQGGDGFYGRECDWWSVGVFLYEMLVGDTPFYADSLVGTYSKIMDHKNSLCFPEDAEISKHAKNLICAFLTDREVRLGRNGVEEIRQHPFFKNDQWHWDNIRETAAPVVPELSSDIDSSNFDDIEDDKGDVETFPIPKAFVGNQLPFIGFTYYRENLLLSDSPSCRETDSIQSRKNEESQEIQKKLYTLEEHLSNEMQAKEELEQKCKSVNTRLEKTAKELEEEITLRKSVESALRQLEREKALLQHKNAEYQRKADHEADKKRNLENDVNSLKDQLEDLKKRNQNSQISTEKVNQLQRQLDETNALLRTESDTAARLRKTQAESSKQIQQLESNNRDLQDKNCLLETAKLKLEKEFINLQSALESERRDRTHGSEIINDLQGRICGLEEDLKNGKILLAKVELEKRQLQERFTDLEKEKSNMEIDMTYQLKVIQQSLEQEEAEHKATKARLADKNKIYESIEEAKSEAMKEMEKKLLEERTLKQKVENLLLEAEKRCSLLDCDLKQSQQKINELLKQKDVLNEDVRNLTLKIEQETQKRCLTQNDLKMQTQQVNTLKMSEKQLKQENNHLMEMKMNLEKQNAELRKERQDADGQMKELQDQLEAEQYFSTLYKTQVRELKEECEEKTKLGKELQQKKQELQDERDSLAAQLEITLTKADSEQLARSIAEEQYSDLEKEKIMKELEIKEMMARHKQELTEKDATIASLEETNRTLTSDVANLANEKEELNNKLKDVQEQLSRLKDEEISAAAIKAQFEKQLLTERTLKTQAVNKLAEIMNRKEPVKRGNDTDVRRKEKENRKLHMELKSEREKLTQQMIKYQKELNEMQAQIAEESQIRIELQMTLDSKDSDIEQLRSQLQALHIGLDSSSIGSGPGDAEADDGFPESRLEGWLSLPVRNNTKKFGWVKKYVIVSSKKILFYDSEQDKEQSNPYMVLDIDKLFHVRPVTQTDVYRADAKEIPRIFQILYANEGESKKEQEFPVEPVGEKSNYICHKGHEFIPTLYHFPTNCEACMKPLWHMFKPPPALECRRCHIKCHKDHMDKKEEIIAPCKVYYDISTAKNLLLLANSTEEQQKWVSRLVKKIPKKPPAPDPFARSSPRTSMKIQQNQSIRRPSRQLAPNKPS

As to `Nc1nccc(-n2ccc3c(OCCc4ccccc4)cccc32)n1`, in assay [1], the inhibition at 50 µM came to 63 ± 5%. Besides, the IC50 in assay [1] (read-out: ROCK1 IC50) worked out at 53.6 ± 4.1 µM; in assay [2] it was 17 ± 1.7 µM.
The like results for `CC1CN(c2ccnc(N)n2)c2ccccc21` (centres unmarked) were, in that order, 93 ± 2%, 4.8 ± 0.5 µM and 2.6 ± 0.1 µM.
The like results for `Nc1nccc(-n2ccc3c(C(=O)NCc4ccc(F)cc4)cccc32)n1` were, in that order, 70 ± 3%, 10.5 ± 1 µM and 1.1 ± 0.49 µM.
The like results for `Nc1nccc(-n2ccc3ccccc32)n1` were, in that order, 88 ± 4%, 4.8 ± 0.3 µM and 4 ± 0.3 µM.
For `Nc1nccc(N2CCc3cc(Br)ccc32)n1`, the inhibition at 50 µM in assay [1] was found to be 83 ± 5%. Also, the IC50 came to 1.7 ± 0.3 µM in assay [1] (read-out: ROCK1 IC50) and 1.2 ± 0.1 µM in assay [2].
For `Nc1nccc(-n2ccc3cc(C(=O)NCc4ccccc4)ccc32)n1`, in that order: 96 ± 1%, 2.4 ± 1.6 µM and 0.3 ± 0.1 µM.
For `COC(=O)c1ccc(Nc2ccnc(N)n2)cc1`, in that order: 77 ± 3%, 20.5 ± 8 µM and 13.9 ± 1.7 µM.
The like results for `Nc1nccc(N2CCc3cc(S(N)(=O)=O)ccc32)n1` were, in that order, 73 ± 4%, 25.8 ± 2.6 µM and 10.3 ± 0.9 µM.
Regarding `COc1ccc2c(ccn2-c2ccnc(N)n2)c1`, in assay [1], the inhibition at 50 µM turned out to be 96 ± 3%. Moreover, the values for the IC50 in assay [1] (read-out: ROCK1 IC50) and in assay [2] were 0.4 ± 0.1 µM and 0.25 ± 0.13 µM, respectively.
`COc1ccc2c(c1)c(CCNC(C)=O)cn2-c1ccnc(N)n1`: in assay [1], the inhibition at 50 µM was found to be 89 ± 1%. The values for the half-maximal inhibitory concentration (IC50) in assay [1] (read-out: ROCK1 IC50) and in assay [2] were 4.9 ± 0.8 µM and 5.3 ± 1.2 µM, respectively.
The like results for `Nc1nccc(N2CCc3cc(Cl)ccc32)n1` were, in that order, 73 ± 3%, 1.5 ± 0.2 µM and 1.2 ± 0.2 µM.
On to `CC(NC(=O)c1cccc2c1ccn2-c1ccnc(N)n1)c1ccccc1` (centres unmarked) [drawing 178], for which the “ROCK1 % inhibition @ 50 μM” value in assay [1] (50 μM compound) came to 105 ± 1%. For the same compound, the half-maximal inhibitory concentration (IC50) in assay [1] (read-out: ROCK1 IC50) worked out at 0.12 ± 0.02 µM; in assay [2], 0.06 ± 0.02 µM.
For `CC(NC(=O)c1cccc2c1ccn2-c1ccnc(N)n1)c1ccccc1` (centres unmarked) [drawing 177], the inhibition at 50 µM in assay [1] worked out at 85 ± 6%. For the same compound, the IC50 in assay [1] (read-out: ROCK1 IC50) stood at 1.7 ± 0.5 µM; in assay [2], 0.21 ± 0.15 µM.
For `Nc1nccc(-n2ccc3c(OCc4ccccc4Cl)cccc32)n1`, in that order: 62 ± 6%, 29.1 ± 8.2 µM and 19 ± 5.9 µM.
Take `Cc1ccc2c(ccn2-c2ccnc(N)n2)c1`: in assay [1], the inhibition at 50 µM is 82 ± 5%. Further, the IC50 in assay [1] (read-out: ROCK1 IC50) was determined as 8.3 ± 0.9 µM; in assay [2] it was 7.1 ± 2.1 µM.
On to `COc1cccc(CNC(=O)c2cccc3c2CCN3c2ccnc(N)n2)c1`, for which, in assay [1], the inhibition at 50 µM amounted to 92.8 ± 3.64%. Further, the IC50 in assay [1] (read-out: ROCK1 IC50) turned out to be 1.62 ± 0.86 µM; in assay [2], 0.25 ± 0.02 µM.
On to `Nc1nccc(N2CCc3ccc(F)cc32)n1`, for which the inhibition at 50 µM in assay [1] stood at 89 ± 4%. Also, the values for the IC50 in assay [1] (read-out: ROCK1 IC50) and in assay [2] were 3.7 ± 0.4 µM and 1.34 ± 0.09 µM, respectively.
The like results for `COc1cccc(Nc2ccnc(N)n2)c1` were, in that order, 63 ± 5%, 30.2 ± 2.5 µM and 42.5 ± 6.7 µM.
The like results for `Nc1nccc(Nc2cccc([N+](=O)[O-])c2)n1` were, in that order, 91 ± 2%, 4.86 ± 0.6 µM and 7.82 ± 2.3 µM.
The like results for `Nc1nccc(-n2ccc3c(C(=O)NCc4ccccc4F)cccc32)n1` were, in that order, 88.7 ± 5.96%, 5.67 ± 0.32 µM and 0.92 ± 0.48 µM.
Turning to `Nc1nccc(-n2ccc3cc(NC(=O)CCc4ccccc4)ccc32)n1`, the inhibition at 50 µM in assay [1] came out at 60 ± 2%. In addition, the 50% inhibitory concentration (IC50) in assay [1] (read-out: ROCK1 IC50) came to 54.1 ± 1.1 µM; in assay [2], 8.4 ± 2 µM.
For `Nc1nccc(N2CCCc3ccccc32)n1`, in that order: 69 ± 1%, 19.8 ± 4.3 µM and 35.3 ± 5.1 µM.
In the case of `CC1Cc2cc(F)ccc2N1c1ccnc(N)n1` (centres unmarked), in assay [1], the inhibition at 50 µM is 97 ± 4%. Further, the half-inhibitory concentration (IC50) was determined as 0.4 ± 0.1 µM in assay [1] (read-out: ROCK1 IC50) and 0.2 ± 0.01 µM in assay [2].
Turning to `COc1cccc(CC(=O)Nc2cccc3c2ccn3-c2ccnc(N)n2)c1`, in assay [1], the inhibition at 100 µM was found to be 62%. Also, the IC50 in assay [1] (read-out: ROCK1 IC50) amounted to 13 ± 6.81 µM.
The like results for `CCOc1cccc(CNC(=O)c2cccc3c2ccn3-c2ccnc(N)n2)c1` were, in that order, 61% and 3.37 ± 0.53 µM.
For `COCCOc1cccc(CNC(=O)c2cccc3c2ccn3-c2ccnc(N)n2)c1`, in that order: 86% and 9.31 ± 8.68 µM.
For `COc1cccc([C@H](C)NC(=O)c2cccc3c2ccn3-c2ccnc(N)n2)c1`, in that order: 97% and 1.38 ± 0.63 µM.
Consider `CS(=O)(=O)Nc1cccc(CNC(=O)c2cccc3c2ccn3-c2ccnc(N)n2)c1`, for which the inhibition at 100 µM in assay [1] came out at 100%. Moreover, the IC50 in assay [1] (read-out: ROCK1 IC50) came out at 3.26 ± 0.57 µM.
Regarding `Nc1nccc(-n2ccc3c(OCc4cccc(Cl)c4F)cccc32)n1`, the inhibition at 50 µM in assay [1] turned out to be 10 ± 2%.
Same read-out and setting: the value for `Nc1nccc(Nc2ccc3cc[nH]c3c2)n1` was 23 ± 1%; that for `Cc1cc(Nc2cccc(S(N)(=O)=O)c2)nc(N)n1` was 0.8 ± 1.2%.
`CCc1ccc(Nc2ccnc(N)n2)cc1`: the inhibition at 50 µM in assay [1] was 36 ± 6%.
Still for that read-out and setting: the value for `CC(=O)NS(=O)(=O)c1ccc(Nc2ccnc(N)n2)cc1` was 9 ± 1.5%; that for `NC(=O)c1ccc(Oc2ccnc(N)n2)cc1` was 2 ± 1%.
On the same count and under the same terms, the result for `Nc1nccc(-n2ccc3c(C(=O)Nc4ccccc4)cccc32)n1` reads 9 ± 1%.
For `COc1cccc(CN(C)C(=O)c2cccc3c2ccn3-c2ccnc(N)n2)c1`, in assay [1], the inhibition at 100 µM was found to be 89%. Moreover, in assay [1] (read-out: ROCK1 IC50), the IC50 was determined as 15.2 ± 3.74 µM.
Turning to `COC[C@H](NC(=O)c1cccc2c1ccn2-c1ccnc(N)n1)c1ccccc1`, the inhibition at 100 µM in assay [1] came to 91%. In assay [1] (read-out: ROCK1 IC50), the IC50 is 15.4 ± 6.04 µM.
In the case of `c1ccc(Nc2nccc(N3CCc4ccccc43)n2)cc1`, the inhibition at 50 µM in assay [1] was -1 ± 2%.
Still for that read-out and setting: the result for `Nc1nccc(Nc2ccc(CC(=O)O)cc2)n1` reads 2 ± 1%.
`CC(=O)N(C)c1cccc(CNC(=O)c2cccc3c2ccn3-c2ccnc(N)n2)c1`: the inhibition at 100 µM in assay [1] was 47%. In assay [1] (read-out: ROCK1 IC50), the IC50 was determined as 40.3 ± 11 µM.
Take `NS(=O)(=O)c1ccc(Nc2ncnc3nc[nH]c23)cc1`: the inhibition at 50 µM in assay [1] is 54 ± 4%. Besides, the IC50 in assay [1] (read-out: ROCK1 IC50) turned out to be 42.7 ± 0.9 µM.
Consider `Clc1nccc(N2CCc3ccccc32)n1`, for which the inhibition at 50 µM in assay [1] is -3 ± 1%.
The same measure, in the same setting: the value for `Nc1nccc(Oc2ccccc2)n1` was -0.5 ± 1%.
Take `CC[C@H](NC(=O)c1cccc2c1ccn2-c1ccnc(N)n1)c1ccccc1`: the inhibition at 100 µM in assay [1] came out at 88%. For the same compound, the IC50 in assay [1] (read-out: ROCK1 IC50) is 9.76 ± 0.86 µM.
`Nc1nccc(-n2ccc3cccc(OCc4ccccc4)c32)n1`: the inhibition at 50 µM in assay [1] is -5 ± 0.5%.
Regarding `Nc1nccc(Nc2ccc(S(N)(=O)=O)cc2)n1` [NSC-135784, reference compound], in assay [1] (NCI sample, screening hit, weak inhibitor, read-out: IC50 (screen of NCI Diversity set, NCI sample)), the IC50 stood at 92 µM.
In the case of `COc1ccc(CNC(=O)c2cccc3c2ccn3-c2ccnc(N)n2)cc1`, the inhibition at 50 µM in assay [1] was 19.4 ± 13.7%.
In the case of `COc1cccc(CNC(=O)c2cccc3c2ccn3-c2ccnc(NC(C)=O)n2)c1`, in assay [1], the inhibition at 100 µM came out at 80%. Also, the IC50 in assay [1] (read-out: ROCK1 IC50) came out at 15.4 ± 4.02 µM.
On to `Nc1nccc(-n2ccc3c(C(=O)NCc4ccccc4Cl)cccc32)n1`, for which the inhibition at 50 µM in assay [1] worked out at 39.2 ± 4.19%.
Take `Nc1nccc(N2CCc3cc([N+](=O)[O-])ccc32)n1`: the inhibition at 50 µM in assay [1] is 24 ± 2%.

As usually defined, the inhibition is the change of the read-out against control, counted positive when it falls. A word on the IC50: it is the concentration needed to halve the response being measured.
